Experimental findings from patent publication US12496301B2, “Use of androgen receptor degrader for the treatment of spinal and bulbar muscular atrophy” (Arvinas Operations, Inc., priority 2023, dated 2025) are described below.

The subject of series [1] is polyQ-AR. Kind of series: Myotube high content imaging of polyQ-AR in myotubes that overexpress polyQ-AR. Type of series: cell-based, human. The procedure:
Cells were maintained in skeletal growth medium (PromoCell #23160). Immortalized myoblasts harboring inducible human androgen receptor with 56 CAG repeats (hAR56Q) were constructed by lentiviral transduction with CMV-rtTA and TetO-AR56Q-T2A-Puromycin (Mamchaoui, K. et al. Skeletal Muscle 1, 34 (2011)).
On day 0, immortalized myoblasts with inducible polyQ-AR (described above in “Cell lines”) cells were seeded onto Geltrex-coated 96-well plates at a density of 4×10^6 cells per plate in myoblast basal media (Promocell C-23060) supplemented with 1% penicillin-streptomycin (Pen Strep) antibiotics. The plates were then incubated overnight at 37° C. in a 5% CO2 environment. Upon reaching 100% confluency (Day 1), the myoblast media were aspirated and replaced with myotube differentiation media (Promocell C-23061). The cells were cultured in this differentiation media for 6 days, with media changes occurring every three days.
On the sixth day of differentiation, the compounds and doxycycline ([…]) diluted in 100% dimethyl sulfoxide (DMSO) were added to the myotubes. The plate was then incubated for 24 hours at 37° C. in an incubator. On the following day (Day 7), the culture media was removed from the plates and replaced with 50 μL of 4% paraformaldehyde (PFA) prepared in 1× phosphate-buffered saline (PBS). The plates were incubated with PFA for 15 minutes, followed by three washes with PBS. Subsequently, the myotubes were permeabilized for 15 minutes using 0.5% Triton X-100 in 1×PBS and then blocked with 5% Bovine Serum Albumin (BSA) (Thermofisher, #37520) for one hour at room temperature. After blocking, the plates were incubated overnight at 4° C. with primary antibodies: a 1:100 diluted Androgen Receptor antibody (D6F11 Cell Signaling 5135S) and a 1:200 diluted Desmin antibody (Thermofisher, MA1-22150) in PBS containing 0.1% BSA. […] Degradation was quantified by determining the average intensity of AR within separate nuclear and cytoplasmic compartments in Desmin positive area (myotubes).

The next series has as its target T1, AR (Homo sapiens, UniProt P10275).
T1 sequence (P10275 1-920 Q868H): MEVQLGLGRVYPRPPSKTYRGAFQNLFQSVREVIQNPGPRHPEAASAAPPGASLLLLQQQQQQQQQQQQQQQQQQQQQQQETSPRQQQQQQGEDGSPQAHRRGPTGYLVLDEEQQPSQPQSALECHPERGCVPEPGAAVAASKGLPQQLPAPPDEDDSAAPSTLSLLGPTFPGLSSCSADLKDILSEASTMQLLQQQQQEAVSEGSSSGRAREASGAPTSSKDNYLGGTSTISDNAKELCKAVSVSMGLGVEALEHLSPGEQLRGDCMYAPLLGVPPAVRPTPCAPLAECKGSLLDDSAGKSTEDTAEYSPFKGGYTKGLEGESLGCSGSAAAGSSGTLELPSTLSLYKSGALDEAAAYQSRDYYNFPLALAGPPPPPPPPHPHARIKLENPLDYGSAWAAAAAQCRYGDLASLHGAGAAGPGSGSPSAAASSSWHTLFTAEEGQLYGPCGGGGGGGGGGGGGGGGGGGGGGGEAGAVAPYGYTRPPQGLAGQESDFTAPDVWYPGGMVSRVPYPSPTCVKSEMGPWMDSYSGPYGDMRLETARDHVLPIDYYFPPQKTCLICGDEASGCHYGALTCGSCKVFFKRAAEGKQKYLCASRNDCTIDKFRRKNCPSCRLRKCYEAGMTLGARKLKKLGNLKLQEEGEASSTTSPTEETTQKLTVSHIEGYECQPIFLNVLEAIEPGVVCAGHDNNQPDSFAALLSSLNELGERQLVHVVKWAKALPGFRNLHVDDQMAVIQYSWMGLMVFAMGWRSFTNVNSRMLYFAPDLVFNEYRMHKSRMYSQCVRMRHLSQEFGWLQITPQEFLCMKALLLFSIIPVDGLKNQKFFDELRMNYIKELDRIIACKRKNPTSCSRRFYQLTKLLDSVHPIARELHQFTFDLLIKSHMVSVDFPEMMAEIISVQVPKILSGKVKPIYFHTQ
Kind of series: AR agonism assay in MDA-MB-453 ARE-luc reporter cells in the presence of pomalidomide. It counts as cell-based. The following applies: MDA-MB-453 AR luciferase reporter, with pomalidomide. Here is the method: The AR Responsive Luciferase Reporter MDA-MB-453 Stable Cell Line (MDA-MB-453 ARE-luc) was utilized for the AR agonism assay. These cells constitutively express the firefly luciferase reporter gene under the control of the androgen receptor response element. MDA-MB-453 ARE-luc cells were cultured in RPMI media (Thermo Fisher Scientific) supplemented with 5% charcoal-Dextran treated fetal bovine serum and were maintained at 37° C. in a 5% CO2 incubator. On day 0, the cells were seeded in 96-well plates at a density of 5×10^6 cells per plate. To prevent serum androgen interference during the AR agonism assay, the cells were cultured in phenol-free RPMI media without FBS. On day 1, the cells were treated with the compounds to establish concentration-response curves (CRCs). The compounds were administered at a top concentration of 300 nM with half-log dilutions. The synthetic AR agonist R1881 served as a positive control, with a top concentration of 30 nM and half-log dilutions. E3 ligase inhibitor pomalidomide was included in each well alongside the compounds at a concentration tenfold higher than that of the treated compounds. On day 2, the culture medium was removed, and luminescence data were obtained using the Bright Glo Assay (Promega, Catalog No. E2620) with 50 μL of Bright Glo buffer per well. Luminescence signals were recorded using a plate reader, and the agonism effect was calculated as a percentage using the formula: Agonism effect (%)=(Luminescence signal of compound/Maximum signal of R1881 at 30 nM)*100.
Background: Reporter assays use an easily measured gene product as a stand-in for the process of interest.

Another series concerns hepatocyte. As to the kind of experiment: In vitro ADMET: hepatocyte toxicity. Type of series: cell-based. The following applies: at 1 μM.
The next series has as its target hERG (Homo sapiens, UniProt Q12809). As to the kind of experiment: In vitro ADMET: hERG inhibition.
A short description of series [2]: Oral bioavailability in non-human primates. Type of series: in vivo.
Series [3] deals with polyQ-AR. Kind of series: polyQ-AR degradation in SBMA patient hiPSC-derived myotubes, capillary immunoassay. Type of series: cell-based, human. The following applies: concentration response. The procedure: Lysates for hiPSC-derived myotubes were prepared in lysis buffer ([…], 50 mM sodium chloride, 1% NP-40, 1% SDS) supplemented with Halt Protease Inhibitor (78437 Thermo Fisher Scientific), Benzonase, and MgCl2 (1 mM final concentration). The lysates were cleared by centrifugation at 4° C. and supernatants were quantified using the BIO-RAD DC protein assay (5000112 BIO-RAD). The AR and protein levels were quantified by an automated capillary immunoassay experiment (ProteinSimple). The AR and Myosin Protein levels were quantified and normalized to total protein.
Control and SBMA hiPSCs were differentiated into myotubes as previously described (Caron, L. et al. 2016, STEM CELLS Transl. Med. 5, 1145-1161) using the skeletal muscle differentiation kit (Amsbio). hiPSCs were dissociated to single cells using Accutase and plated on Geltrex-coated 10 cm culture plates at a density of 200,000 cells per plate with SBMA hiPSCs in skeletal muscle induction media (SKM01, AMSBIO). Media changes were performed every second day until cells were confluent (˜7 days). The resulting myogenic precursor cells were then dissociated to single cells using Accutase and replated on Matrigel-coated 24-well tissue culture plate with 500 μL of cells at 35,000 cells per mL in skeletal myoblast media (SKM02, AMSBIO). Half media changes were performed every second day until myoblasts reached confluence (˜7 days). The media was then switched to myotube medium (SKM03, ASMBIO). Media changes every second day until myotube formation was confirmed by microscopy. Myotubes were treated on day 20 of differentiation (6 days' worth of SKM03 media) with compounds diluted in DMSO for a final DMSO concentration of 0.01% in SKM03 media. The cells were lysed 24 hours later in Pierce RIPA buffer (Cat. No. 89900, ThermoFisher) supplemented with 1× Halt protease inhibitor cocktail (Cat. No. 87786, ThermoFisher), 1 mM MgCl2, and 1 μL Benzonase Nuclease. AR protein was measured by capillary electrophoresis. […]

Series [4] deals with polyQ-AR. As to the kind of experiment: Global proteomics in SBMA hiPSC-myotubes: polyQ-AR and specificity. It counts as cell-based, human. The conditions noted are these: 12 nM, SBMA hiPSC-myotubes. The source says: (§1) (FIG. 12A). […] (FIG. 12C).
The target in another series is T2, PDE6D (Homo sapiens, UniProt O43924).
T2 construct: endogenous in cells; host or cells: SBMA hiPSC-derived myotubes
T2 sequence (O43924 whole entry): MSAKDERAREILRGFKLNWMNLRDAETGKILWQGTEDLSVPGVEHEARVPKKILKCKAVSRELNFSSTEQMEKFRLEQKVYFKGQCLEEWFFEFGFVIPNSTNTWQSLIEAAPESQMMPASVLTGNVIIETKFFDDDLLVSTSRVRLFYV
As to the kind of experiment: Global proteomics / Western blot in SBMA hiPSC-myotubes: neosubstrate PDE6D. Type of series: cell-based. The conditions noted are these: global proteomics, SBMA hiPSC-myotubes.
Excerpt: as §1
Background: In western blotting, separated proteins are transferred to a membrane and probed.

“Also recorded” adds a separate entry of the source.

Chain of hERG (Q12809 whole entry): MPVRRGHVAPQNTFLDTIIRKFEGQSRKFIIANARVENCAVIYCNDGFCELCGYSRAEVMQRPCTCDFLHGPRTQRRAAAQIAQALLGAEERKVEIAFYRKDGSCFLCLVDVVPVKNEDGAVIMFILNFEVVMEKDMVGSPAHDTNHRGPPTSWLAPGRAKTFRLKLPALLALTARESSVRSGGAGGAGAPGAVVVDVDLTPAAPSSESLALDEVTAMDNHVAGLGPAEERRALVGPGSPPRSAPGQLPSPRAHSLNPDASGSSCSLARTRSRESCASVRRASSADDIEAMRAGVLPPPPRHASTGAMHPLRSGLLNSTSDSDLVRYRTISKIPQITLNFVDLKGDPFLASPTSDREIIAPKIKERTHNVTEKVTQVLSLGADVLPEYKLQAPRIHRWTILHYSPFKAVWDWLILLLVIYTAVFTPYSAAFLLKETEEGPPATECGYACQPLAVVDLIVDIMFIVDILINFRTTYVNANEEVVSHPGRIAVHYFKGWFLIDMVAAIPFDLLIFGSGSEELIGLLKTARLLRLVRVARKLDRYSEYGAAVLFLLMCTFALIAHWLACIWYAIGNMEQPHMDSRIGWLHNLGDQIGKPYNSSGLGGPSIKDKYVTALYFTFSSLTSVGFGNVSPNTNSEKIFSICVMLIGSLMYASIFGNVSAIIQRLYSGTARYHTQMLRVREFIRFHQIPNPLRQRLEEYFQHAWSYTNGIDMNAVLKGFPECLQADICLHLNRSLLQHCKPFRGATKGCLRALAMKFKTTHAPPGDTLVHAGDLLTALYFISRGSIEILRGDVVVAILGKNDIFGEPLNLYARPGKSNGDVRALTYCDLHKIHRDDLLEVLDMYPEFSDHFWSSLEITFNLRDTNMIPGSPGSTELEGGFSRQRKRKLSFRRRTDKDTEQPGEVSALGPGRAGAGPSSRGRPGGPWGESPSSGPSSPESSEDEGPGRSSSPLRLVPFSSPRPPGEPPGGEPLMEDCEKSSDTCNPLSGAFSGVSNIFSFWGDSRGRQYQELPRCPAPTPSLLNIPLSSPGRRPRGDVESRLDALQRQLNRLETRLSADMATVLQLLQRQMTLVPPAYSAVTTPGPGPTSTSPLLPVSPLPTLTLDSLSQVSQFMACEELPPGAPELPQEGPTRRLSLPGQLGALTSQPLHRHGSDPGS

For the compound `Cc1cc(O[C@H]2C(C)(C)[C@H](NC(=O)c3cnc(N4CCC(CN(C(C)C)[C@H]5C[C@H](Oc6ccc7c(c6)C(=O)N(C6CCC(=O)NC6=O)C7=O)C5)CC4)nc3)C2(C)C)cc(C)c1C#N` (stereo partly shown) [Compound B], in the series with polyQ-AR [1] (24 hours treatment, nuclear compartment), the “mean Dmax for polyQ-AR in myotube nuclei” value was “increase in nuclear polyQ-AR”. In the series on polyQ-AR [1] (data not shown), the “total polyQ-AR signal in myotubes” value is reported as “reduced the total polyQ-AR signal”. On AR, the “agonism activity at Emax relative to R1881” value was greater than 40%. The EC50 at AR (read-out: EC50, AR agonist activity) was 37 nM.

Take `CC1(C)[C@H](NC(=O)c2cnc(N3CCC(CN4CCN(c5cc6c(cc5F)C(=O)N(C5CCC(=O)NC5=O)C6=O)CC4)CC3)nc2)C(C)(C)[C@H]1Oc1ccc(C#N)c(Cl)c1` (stereo partly shown) [Compound C]: the hepatocyte toxicity with hepatocyte worked out at 50%.

In the case of `CCN(CC1CCN(c2cnc(C(=O)N[C@H]3C(C)(C)[C@H](Oc4cc(C)c(C#N)c(C)c4)C3(C)C)cn2)CC1)[C@H]1C[C@H](Oc2ccc3c(c2)C(=O)N(C2CCC(=O)NC2=O)C3=O)C1` (stereo partly shown) [Compound D], the hERG inhibition on hERG was less than 10 µM.

In the case of `COc1cc(O[C@H]2CC[C@H](NC(=O)c3cnc(N4CCC(CN(C(C)C)[C@H]5C[C@H](Oc6ccc7c(c6)C(=O)N(C6CCC(=O)NC6=O)C7=O)C5)CC4)cn3)CC2)ccc1C#N` (stereo partly shown) [Compound E], in series [2], the oral bioavailability result is recorded as “poor oral bioavailability”.

For `CC(C)N(CC1CCN(c2ncc(C(=O)N[C@H]3C(C)(C)[C@H](Oc4ccc(C#N)c(Cl)c4)C3(C)C)cn2)CC1)[C@H]1C[C@H](Oc2ccc3c(c2)C(=O)N(C2CCCN(C)C2=O)C3=O)C1` (stereo partly shown) [Compound F, reference compound], the “polyQ-AR degradation in SBMA hiPSC-myotubes” value with polyQ-AR [3] is listed as “did not induce polyQ-AR degradation”. In addition, in the series on polyQ-AR [4], the “polyQ-AR degradation compared to control, global proteomics” value is reported as “does not induce degradation; also recorded: does not degrade AR”. In addition, the PDE6D as neosubstrate entry on PDE6D was “not a neosubstrate”.

As usually defined, the EC50 is the concentration that produces a half-maximal response.
